We go through three molecules from paper PMC11124336 (Molecules, 2024).

Data set [1] has as its target T1, Type II NADH dehydrogenase (NDH-2, NdhC) (Staphylococcus aureus, UniProt Q2FZV7).
T1 construct: gene SAOUHSC_00878; N-terminal 6His-tagged NDH-2 (ndhC gene from S. aureus 25923)
T1 sequence (Q2FZV7 1-402): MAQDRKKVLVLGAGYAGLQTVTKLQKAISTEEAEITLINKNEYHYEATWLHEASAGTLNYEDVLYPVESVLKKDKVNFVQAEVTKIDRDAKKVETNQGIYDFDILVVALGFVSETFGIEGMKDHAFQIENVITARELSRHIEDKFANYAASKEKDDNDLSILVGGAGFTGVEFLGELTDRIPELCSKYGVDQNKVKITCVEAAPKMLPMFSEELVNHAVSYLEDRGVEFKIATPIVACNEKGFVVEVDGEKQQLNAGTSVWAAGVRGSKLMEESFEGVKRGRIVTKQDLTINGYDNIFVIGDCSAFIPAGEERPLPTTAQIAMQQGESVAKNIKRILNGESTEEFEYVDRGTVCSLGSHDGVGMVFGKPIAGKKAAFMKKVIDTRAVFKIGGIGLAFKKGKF
Description: activity of FAD-depleted purified enzyme restored by added FAD. Format: biochemical.

In data set [2] the target is T1, Type II NADH dehydrogenase (NDH-2, NdhC). Put plainly: NADH oxidation assay at […] nm with menadione. It counts as biochemical.
Substrate in data set [3]: CC1=CC(=O)c2ccccc2C1=O
Description: steady-state kinetics of purified enzyme (Km). Format: biochemical, Staphylococcus aureus. To be noted: FAD.

Substrate in data set [4]: NC(=O)C1=CN([C@@H]2O[C@H](COP(=O)(O)OP(=O)(O)OC[C@H]3O[C@@H](n4cnc5c(N)ncnc54)[C@H](O)[C@@H]3O)[C@@H](O)[C@H]2O)C=CC1
Put plainly: steady-state kinetics of purified enzyme (Km). Particulars: FAD. It counts as biochemical, Staphylococcus aureus.

Turning to `Cc1cc2nc3c(=O)[nH]c(=O)nc-3n(C[C@H](O)[C@H](O)[C@H](O)COP(=O)(O)OP(=O)(O)OC[C@H]3O[C@@H](n4cnc5c(N)ncnc54)[C@H](O)[C@@H]3O)c2cc1C` [FAD], the “activity of FAD-depleted purified enzyme restored by added FAD” value in data set [1] is “the addition of exogenous FAD to the reaction mix restored the NADH dehydrogenase activity of the recombinant protein”.
For orientation: IC50 means the concentration that gives 50% inhibition. Consider `CCCCCCCc1cc(O)c2ccccc2[n+]1[O-]` [HQNO, 2-heptyl-4-hydroxyquinoline-N-oxide], for which, in data set [2], the IC50 came out at 9 µM.

B1: Type II NADH dehydrogenase (NDH-2, NdhC) (Staphylococcus aureus subsp. aureus NCTC 8325) (protein)
chain: MAQDRKKVLVLGAGYAGLQTVTKLQKAISTEEAEITLINKNEYHYEATWLHEASAGTLNYEDVLYPVESVLKKDKVNFVQAEVTKIDRDAKKVETNQGIYDFDILVVALGFVSETFGIEGMKDHAFQIENVITARELSRHIEDKFANYAASKEKDDNDLSILVGGAGFTGVEFLGELTDRIPELCSKYGVDQNKVKITCVEAAPKMLPMFSEELVNHAVSYLEDRGVEFKIATPIVACNEKGFVVEVDGEKQQLNAGTSVWAAGVRGSKLMEESFEGVKRGRIVTKQDLTINGYDNIFVIGDCSAFIPAGEERPLPTTAQIAMQQGESVAKNIKRILNGESTEEFEYVDRGTVCSLGSHDGVGMVFGKPIAGKKAAFMKKVIDTRAVFKIGGIGLAFKKGKF
notes: N-terminal 6His-tagged NDH-2 (ndhC gene from S. aureus 25923)
One may read the Km as the concentration of substrate that gives half-maximal velocity. B1: the Km in data set [3] turned out to be 19.9 ± 0.7 µM; in data set [4], 90.8 ± 16.2 µM.
